Data as given in PubChem BioAssay AID1963829 (Molecular Pharmacology Branch, DTP, NCI, 2024).
pIC50: −log10 of the molar value.

Test system: 935938-334-R-J1-PDC complex spheroid viability
Experiment: Anticancer human tumor 935938-334-R-J1-PDC patient-derived small intestine adenocarcinoma cell line growth inhibition [POLQ]
Conditions: for pIC50: curve of first compound; for viability, T/C: stronger effect = lower value
In short: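 Growth inhibition in 3D: complex spheroids (tumor PDC, HUVEC, MSC) treated with POLQ inhibitor combinations; where Cmax unknown, highest tested concentration 10 microM, except SN-38 at 1 microM.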

[1] = second compound 0.0316 µM, first compound 0.0316 µM
[2] = second compound 0.0316 µM, first compound 0.1 µM
[3] = second compound 0.0316 µM, first compound 0.316 µM
[4] = second compound 0.0316 µM, first compound 1 µM
[5] = second compound 0.0316 µM, first compound 3.16 µM
[6] = second compound 0.0316 µM, first compound 10 µM
[7] = second compound 0.1 µM, first compound 0.0316 µM
[8] = second compound 0.1 µM, first compound 0.1 µM
[9] = second compound 0.1 µM, first compound 0.316 µM
[10] = second compound 0.1 µM, first compound 1 µM
[11] = second compound 0.1 µM, first compound 3.16 µM
[12] = second compound 0.1 µM, first compound 10 µM
[13] = second compound 0.316 µM, first compound 0.0316 µM
[14] = second compound 0.316 µM, first compound 0.1 µM
[15] = second compound 0.316 µM, first compound 0.316 µM
[16] = second compound 0.316 µM, first compound 1 µM
[17] = second compound 0.316 µM, first compound 3.16 µM
[18] = second compound 0.316 µM, first compound 10 µM
[19] = second compound 1 µM, first compound 0.0316 µM
[20] = second compound 1 µM, first compound 0.1 µM
[21] = second compound 1 µM, first compound 0.316 µM
[22] = second compound 1 µM, first compound 1 µM
[23] = second compound 1 µM, first compound 3.16 µM
[24] = second compound 1 µM, first compound 10 µM
[25] = second compound 3.16 µM, first compound 0.0316 µM
[26] = second compound 3.16 µM, first compound 0.1 µM
[27] = second compound 3.16 µM, first compound 0.316 µM
[28] = second compound 3.16 µM, first compound 1 µM
[29] = second compound 3.16 µM, first compound 3.16 µM
[30] = second compound 3.16 µM, first compound 10 µM
[31] = second compound 10 µM, first compound 0.0316 µM
[32] = second compound 10 µM, first compound 0.1 µM
[33] = second compound 10 µM, first compound 0.316 µM
[34] = second compound 10 µM, first compound 1 µM
[35] = second compound 10 µM, first compound 3.16 µM
[36] = second compound 10 µM, first compound 10 µM
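Also: spheroids exposed to drugs for seven days before viability read.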
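For viability, T/C in this document: 100% = DMSO vehicle control wells.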

O=C(c1cc(Cc2n[nH]c(=O)c3ccccc23)ccc1F)N1CCN(C(=O)C2CC2)CC1 + Nc1ccc(C#CCN(C(=O)Cc2ncc(C(F)(F)F)cc2C(F)(F)F)c2ccc(F)cc2)nn1
pIC50 (second compound 0.0316 µM): < 5.00 | pIC50 (second compound 0.1 µM): < 5.00 | pIC50 (second compound 0.316 µM): < 5.00 | pIC50 (second compound 1 µM): < 5.00 | pIC50 (second compound 3.16 µM): < 5.00 | pIC50 (second compound 10 µM): < 5.00 | viability, T/C [1]: 87.6% | viability, T/C [2]: 89.3% | viability, T/C [3]: 108% | viability, T/C [4]: 89.5% | viability, T/C [5]: 75.2% | viability, T/C [6]: 76.3% | viability, T/C [7]: 93.7% | viability, T/C [8]: 81% | viability, T/C [9]: 105% | viability, T/C [10]: 73.1% | viability, T/C [11]: 81% | viability, T/C [12]: 60% | viability, T/C [13]: 84.4% | viability, T/C [14]: 85% | viability, T/C [15]: 116% | viability, T/C [16]: 69.3% | viability, T/C [17]: 74.3% | viability, T/C [18]: 53.3% | viability, T/C [19]: 99.3% | viability, T/C [20]: 99.8% | viability, T/C [21]: 107% | viability, T/C [22]: 98.6% | viability, T/C [23]: 111% | viability, T/C [24]: 78.7% | viability, T/C [25]: 92% | viability, T/C [26]: 93.5% | viability, T/C [27]: 95% | viability, T/C [28]: 94.8% | viability, T/C [29]: 94.9% | viability, T/C [30]: 69.2% | viability, T/C [31]: 84.4% | viability, T/C [32]: 94.9% | viability, T/C [33]: 102% | viability, T/C [34]: 98.2% | viability, T/C [35]: 81% | viability, T/C [36]: 85.9%

CCc1cc2c(N3CCc4c(cc(Cn5ccnc5)cc4-c4cn(C)nc4C(F)(F)F)C3=O)cc(C)nc2c(OC)n1 + Cc1cccc(N(C)C(=O)C2C(O)CCN2c2nc(C)cc(C(F)(F)F)c2C#N)c1
pIC50 (second compound 0.0316 µM): < 5.00 | pIC50 (second compound 0.1 µM): < 5.00 | pIC50 (second compound 0.316 µM): < 5.00 | pIC50 (second compound 1 µM): < 5.00 | pIC50 (second compound 3.16 µM): < 5.00 | pIC50 (second compound 10 µM): < 5.00 | viability, T/C [1]: 77.4% | viability, T/C [2]: 59% | viability, T/C [3]: 74% | viability, T/C [4]: 58.9% | viability, T/C [5]: 69.4% | viability, T/C [6]: 56.7% | viability, T/C [7]: 61.9% | viability, T/C [8]: 87% | viability, T/C [9]: 62.8% | viability, T/C [10]: 56.1% | viability, T/C [11]: 72% | viability, T/C [12]: 63% | viability, T/C [13]: 74.7% | viability, T/C [14]: 62.6% | viability, T/C [15]: 62.4% | viability, T/C [16]: 54.8% | viability, T/C [17]: 65.5% | viability, T/C [18]: 51.6% | viability, T/C [19]: 91.2% | viability, T/C [20]: 61.9% | viability, T/C [21]: 55.6% | viability, T/C [22]: 60.9% | viability, T/C [23]: 51.7% | viability, T/C [24]: 53.2% | viability, T/C [25]: 78.3% | viability, T/C [26]: 78.3% | viability, T/C [27]: 71.6% | viability, T/C [28]: 70.7% | viability, T/C [29]: 57.1% | viability, T/C [30]: 54.2% | viability, T/C [31]: 72.7% | viability, T/C [32]: 65.8% | viability, T/C [33]: 58.9% | viability, T/C [34]: 49.5% | viability, T/C [35]: 60.3% | viability, T/C [36]: 50.8%
